Legend:
[1] = test system: KRASG12D-mutant cell line AsPC-1; assay: Cell viability (CellTiter-Glo) and HSA synergy model, AsPC-1; type: cell-based
Method: (§1) Cell lines were seeded in complete growth media (RPMI-1640 or DMEM with 10% Fetal Bovine Serum and 1% Penicillin/Streptomycin) and allowed to adhere overnight in a 37° C. and 5% CO2 humidified incubator. The following day compounds were added at the indicate concentrations and incubated for a further 5 days. The number of viable cells in each well were assessed with Promega CellTiter-Glo® reagent according to manufacturer instructions. The cell viability was normalized to DMSO controls. The cell viability as a function of compound concentrations were plotted using GraphPad Prism analyzed using the Combenefit software package (Di Veroli G Y, Fornari C, Wang D, Mollard S, Bramhall J L, Richards F M, Jodrell D I. Combenefit: an interactive platform for the analysis and visualization of drug combinations. Bioinformatics. 2016 Sep. 15; 32(18):2866-8. doi: 10.1093/bioinformatics/btw230) to assess the synergy according to the highest single agent (HSA) synergy model (Borisy A A, Elliott P J, Hurst N W, Lee M S, Lehar J, Price E R, Serbedzija G, Zimmermann G R, Foley M A, Stockwell B R, Keith C T. Systematic discovery of multicomponent therapeutics. Proc Natl Acad Sci USA. 2003 Jun. 24; 100(13):7977-82. doi: 10.1073/pnas.1337088100)).
The KRASG12D-mutant cell line AsPC-1 was grown in RPMI-1640 supplemented with 10% fetal bovine serum and 1% penicillin/streptomycin. 2500 cells were seeded in 0.15 mL in the wells of a tissue culture-treated 96-well plate. After overnight incubation, compounds were added at the indicated concentration and incubated for a further 120 hours. Cell viability was assessed with Promega CellTiter Glo reagent, and the relative cell viability was plotted as a function of the concentration of (FIG. 4A and FIG. 4G) MRTX1133 or (FIG. 4D) MRTX-282 in combination with the indicated concentration to Compound A (FIG. 4A and FIG. 4D) or Compound D (FIG. 4G), both strong hydrolyzers. The synergy between (FIG. 4B and FIG. 4H) MRTX1133 or (FIG. 4E) MRTX-282 and Compound A (FIGS. 4B and 4E) or Compound D (FIG. 4H) was assessed by the HAS synergy model. Representative points of synergistic drug combination between (FIG. 4C and FIG. 4I) MRTX1133 or (FIG. 4F) MRTX-282 and Compound A (FIG. 4C and FIG. 4F) or Compound D (FIG. 4I) are highlighted.
The KRASG12D-mutant cell line AsPC-1 was grown in RPMI-1640 supplemented with 10% fetal bovine serum and 1% penicillin/streptomycin. 2000 cells were seeded in 0.15 mL in the wells of a tissue culture-treated 96-well plate. After overnight incubation, compounds were added at the indicated concentration and incubated for a further 120 hours. Cell viability was assessed with Promega CellTiter Glo reagent, and the relative cell viability was plotted as a function of the concentration of pan KRAS-IN-1 in combination with the indicated concentration to Compound D (FIG. 11A) or Compound C (FIG. 11D), both strong hydrolyzers. The synergy between pan KRAS-IN-1 and Compound D (FIG. 11B) or Compound C (FIG. 11E) was assessed by the HAS synergy model. Representative points of synergistic drug combination between pan KRAS-IN-1 and Compound D (FIG. 11C) or Compound C (FIG. 11F).

[2] = test system: KRASG12C-mutant cell line MiaPaCa2; assay: Cell viability (CellTiter-Glo) and HSA synergy model, MiaPaCa2; type: cell-based
Method: as §1
The KRASG12C-mutant cell line MiaPaCa2 was grown in DMEM supplemented with 10% fetal bovine serum and 1% penicillin/streptomycin. […]

[3] = test system: KRASG12D-mutant cell line Gp2D; assay: Cell viability (CellTiter-Glo) and HSA synergy model, Gp2D; type: cell-based
Method: as §1
The KRASG12D-mutant cell line Gp2D was grown in RPMI-16 40 supplemented with 10% fetal bovine serum and 1% penicillin/streptomycin. […]

[4] = test system: KRASG12D-mutant cell line HPAC; assay: Cell viability (CellTiter-Glo) and HSA synergy model, HPAC; type: cell-based
Method: as §1
The KRASG12D-mutant cell line HPAC was grown in RPMI-16 40 supplemented with 10% fetal bovine serum and 1% penicillin/streptomycin. […]

KRAS^G12C = biological target: T1, KRAS^G12C (Homo sapiens, UniProt P01116, G12C); assay: Covalent modification (cross-linking) of KRAS^G12C by sotorasib in MiaPaCa2 cells, immunoblot; type: cell-based
T1 construct: endogenous in cells; host or cells: MiaPaCa2
Method: The KRASG12C-mutant cell line MiaPaCa2 was grown in DMEM supplemented with 10% fetal bovine serum and 1% penicillin/streptomycin. 2500 cells were seeded in 0.15 mL in the wells of a tissue culture-treated 96-well plate. After overnight incubation, compounds were added at the indicated concentration and incubated for a further 120 hours. […] The density of the KRAS^G12C and KRAS^G12C-Soto. gel bands can be quantified, plotted as a function of time, and fit to a single-phase exponential model to get the rate constant for KRAS^G12C target engagement.

[5] = biological target: T2, GTP-loaded KRAS proteins (residue 1-169 of KRAS4B) (Homo sapiens, UniProt P01116, G12V); assay: RAS GTP hydrolysis rate assay (GTPase-Glo) with cyclophilin A; type: biochemical; conditions: bound in tri-complex with cyclophilin A; in some embodiments KRAS^G12V is the isoform used
T2 construct: recombinant KRAS proteins (residue 1-169 of KRAS4B); His6 (TEV protease-cleavable) (cleaved yes); made in house; host or cells: E. coli
Method: (§2) The rate of RAS GTP hydrolysis was assayed in the presence of various KRAS mutations. To assess GTP hydrolysis activity, recombinant KRAS proteins (residue 1-169 of KRAS4B) were expressed in E. coli and purified using a TEV protease-cleavable His6-tag and Ni^2+ affinity chromatography. The His6 tag was removed by treatment with TEV protease, and the KRAS protein was isolated by passing through a second Ni^2+ column followed by size exclusion chromatography. The purified KRAS proteins were loaded with GTP by incubation for 2 hours on ice with 2 mM GTP and 10 mM Ethylenediaminetetraacetic Acid, followed by addition of 10 mM MgCl2 and incubation on ice for 1 additional hour. The excess GTP was removed by overnight dialysis against buffer (12.5 mM HEPES, 75 mM NaCl, pH 7.5) at 4° C. The GTP-loaded KRAS protein were flash frozen in liquid nitrogen, then stored at −80° C. until use.
(§3) GTP-loaded KRAS proteins (1 μM) were combined with 25 μM of recombinant human cyclophilin A and 10 μM of compound in reaction buffer (12.5 mM HEPES, 75 mM NaCl, 1 mM MgCl2, 1 mM DTT, 1% DMSO, pH 7.5) pre-warmed to 37° C. At fixed time points, aliquots were removed and quenched by heating to 80° C. to denature the proteins, then centrifuged to pellet the protein precipitate. The supernatant was assessed for GTP levels using Promega GTPase-Glo™ according to manufacturer instructions. The levels of GTP as a function of incubation time were fit to a single phase exponential decay to determine the rate constant for hydrolysis activity.

[6] = test system: GTP-loaded KRAS proteins (residue 1-169 of KRAS4B); assay: as above; type: biochemical; conditions: 10 μM compound, 25 μM cyclophilin A, 37° C.
Method: as §2, §3

[7] = in combination with MRTX1133, 120 hours
[8] = in combination with MRTX-282, 120 hours

SMILES: CCn1c(-c2cccnc2[C@H](C)OC)c2c3cc(ccc31)[C@@H]1C[C@H]1CC[C@H](NC(=O)[C@H]1[C@H](C)[C@@H]1C)C(=O)N1CCC[C@H](N1)C(=O)OCC(C)(C)C2 (atropisomer, axis not shown) [compound 1]
- synergy on cell viability (HSA synergy model) ([1]; AsPC-1, in combination with MRTX1133, 120 hours): synergistic
- synergy on cell viability (HSA synergy model) ([1]; AsPC-1, in combination with MRTX-282, 120 hours): synergistic
- synergy on cell viability (HSA synergy model) ([2]; MiaPaCa2, in combination with AMG510, 120 hours): synergistic
- synergy on cell viability (HSA synergy model) ([2]; MiaPaCa2, in combination with MRTX849, 120 hours): synergistic
- synergy on cell viability (HSA synergy model) [3, 7]: synergistic
- synergy on cell viability (HSA synergy model) [3, 8]: synergistic
- synergy on cell viability (HSA synergy model) [4, 7]: synergistic
- synergy on cell viability (HSA synergy model) [4, 8]: synergistic
- cross-linking efficiency of sotorasib (KRAS^G12C; MiaPaCa2 cells, 1 μM sotorasib in combination with 1 μM or 10 μM Compound A vs sotorasib alone): increases in a concentration dependent manner
- amount of covalently-modified KRAS^G12C (KRAS^G12C-Soto.) (KRAS^G12C; MiaPaca-2 cells, sotorasib in combination with 1 or 10 μM of Compound A): increased at each time point
- rate of covalent engagement of KRAS^G12C (rate constant for target engagement) (KRAS^G12C; combination of sotorasib and compound A compared with sotorasib alone): more rapid

SMILES: CCn1c(-c2cc(N3CCN(C)CC3)cnc2[C@H](C)OC)c2c3cc(ccc31)-c1cccc(n1)C[C@H](NC(=O)[C@H]1C[C@@H]1C)C(=O)N1CCC[C@H](N1)C(=O)OCC(C)(C)C2 (atropisomer, axis not shown) [compound 21]
- hydrolyzer class: RAS(ON) GTP hydrolysis rate relative to the intrinsic hydrolysis rate [5]: 21 Weak

SMILES: CCn1c(-c2cc(N3CCN(C)CC3)cnc2[C@H](C)OC)c2c3cc(ccc31)N1CCO[C@@H](C[C@H](NC(=O)[C@H]3C[C@@H]3C)C(=O)N3CCC[C@H](N3)C(=O)OCC(C)(C)C2)C1 (atropisomer, axis not shown) [compound 22]
- hydrolyzer class: RAS(ON) GTP hydrolysis rate relative to the intrinsic hydrolysis rate [5]: 22 Weak

SMILES: CCn1c(-c2cccnc2[C@H](C)OC)c2c3cc(ccc31)-c1cc(O)cc(c1)C[C@H](NC(=O)[C@H](C(C)C)N(C)C(=O)C1(C#N)CC1)C(=O)N1CCC[C@H](N1)C(=O)OCC(C)(C)C2 (racemic) [Compound F, reference compound]
- RAS GTP hydrolysis activation [6]: does not activate GTP hydrolysis
